Source: patent US6008215A, “Benzonaphthyridines as bronchial therapeutics” (Byk Gulden Lomberg Chemische Fabrik GmbH, priority 1996, dated 1999)
Where a name gives a salt, the structure may show the parent alone.

Columns and labels:
Type in all cases: biochemical
PDE4 = test: Inhibition of PDE isoenzymes: PDE4 (cAMP-specific), cytosol of human polymorphonuclear leukocytes; settings: PDE4, cytosol of human PMNL, cAMP as substrate, motapizone (1 μM) present
PDE3 = PDE3 (Homo sapiens, UniProt Q14432); test: Inhibition of PDE isoenzymes: PDE3 (cGMP-inhibited), homogenates of human blood platelets; settings: read-out: -log IC50, PDE3 (converted)
Method: (§1) The PDE activity was determined according to Thompson et al. (1) with some modifications (2). The test samples contained 40 mM tris HCl (pH 7.4), 5 mM MgCl2, 0.5 μM cAMP or cGMP, [^3 H] cAMP or [^3 H]cGMP (about 50,000 cpm/sample), the PDE isoenzyme-specific additions described in greater detail below, the indicated concentrations of inhibitor and an aliquot of the enzyme solution in a total sample volume of 200 μl. […] After preincubation at 37° C. for 5 minutes, the reaction was started by addition of the substrate (cAMP or cGMP). The samples were incubated at 37° C. for a further 15 min. The reaction was terminated by addition of 50 μl of 0.2N HCl. After cooling on ice for 10 minutes and addition of 25 μg of 5'-nucleotidase (snake venom from Crotalus atrox), the mixture was again incubated at 37° C. for 10 min and the samples were then applied to QAE Sephadex A-25 columns. The columns were eluted with 2 ml of 30 mM ammonium formate (pH 6.0). The radioactivity of the eluate was measured and corrected by the corresponding blank values. The proportion of hydrolyzed nucleotide in no case exceeded 20% of the original substrate concentration.
PDE3 (cGMP-inhibited) and PDE5 (cGMP-specific) were investigated in homogenates of human blood platelets [Schudt et al. (4)] using cAMP or cGMP as a substrate.
(§2) The IC50 values were determined from the concentration-inhibition curves by nonlinear regression using the GraphPad InPlot™ program (GraphPad Software Inc., Philadelphia, U.S.A.).
In Table 1 below, the inhibitory concentrations determined according to Section A1 [inhibitory concentrations as -log IC50 (mol/l)] for the compounds according to the invention are indicated for various PDE isoenzymes. The numbers of the compounds correspond to the numbers of the examples.

PDE5 = biological target: T1, PDE5 (Homo sapiens, UniProt O76074); test: Inhibition of PDE isoenzymes: PDE5 (cGMP-specific), homogenates of human blood platelets; settings: read-out: -log IC50, PDE5 (converted)
T1 construct: were investigated in homogenates of human blood platelets; from tissue; host or cells: human blood platelets, homogenate
Method: as §1, with “The columns were eluted with 2 ml of 30 mM ammonium formate (pH 6.0).” left out, “The proportion of hydrolyzed nucleotide in no case exceeded 20% of the original substrate concentration.” left out
as §2
(§3) In Table 1 below, the inhibitory concentrations determined according to Section A1 [inhibitory concentrations as -log IC50 (mol/l)] for the compounds according to the invention are indicated for various PDE isoenzymes. […]

PDE2 = biological target: T2, PDE2 (Rattus norvegicus, UniProt Q01062); test: Inhibition of PDE isoenzymes: PDE2 (cGMP-stimulated) from rat hearts; settings: cGMP (5 μM), cAMP as substrate, read-out: -log IC50, PDE2 (converted)
T2 construct: from rat hearts was purified chromatographically; from tissue; host or cells: rat heart, chromatographically purified
T2 sequence (Q01062 1-928): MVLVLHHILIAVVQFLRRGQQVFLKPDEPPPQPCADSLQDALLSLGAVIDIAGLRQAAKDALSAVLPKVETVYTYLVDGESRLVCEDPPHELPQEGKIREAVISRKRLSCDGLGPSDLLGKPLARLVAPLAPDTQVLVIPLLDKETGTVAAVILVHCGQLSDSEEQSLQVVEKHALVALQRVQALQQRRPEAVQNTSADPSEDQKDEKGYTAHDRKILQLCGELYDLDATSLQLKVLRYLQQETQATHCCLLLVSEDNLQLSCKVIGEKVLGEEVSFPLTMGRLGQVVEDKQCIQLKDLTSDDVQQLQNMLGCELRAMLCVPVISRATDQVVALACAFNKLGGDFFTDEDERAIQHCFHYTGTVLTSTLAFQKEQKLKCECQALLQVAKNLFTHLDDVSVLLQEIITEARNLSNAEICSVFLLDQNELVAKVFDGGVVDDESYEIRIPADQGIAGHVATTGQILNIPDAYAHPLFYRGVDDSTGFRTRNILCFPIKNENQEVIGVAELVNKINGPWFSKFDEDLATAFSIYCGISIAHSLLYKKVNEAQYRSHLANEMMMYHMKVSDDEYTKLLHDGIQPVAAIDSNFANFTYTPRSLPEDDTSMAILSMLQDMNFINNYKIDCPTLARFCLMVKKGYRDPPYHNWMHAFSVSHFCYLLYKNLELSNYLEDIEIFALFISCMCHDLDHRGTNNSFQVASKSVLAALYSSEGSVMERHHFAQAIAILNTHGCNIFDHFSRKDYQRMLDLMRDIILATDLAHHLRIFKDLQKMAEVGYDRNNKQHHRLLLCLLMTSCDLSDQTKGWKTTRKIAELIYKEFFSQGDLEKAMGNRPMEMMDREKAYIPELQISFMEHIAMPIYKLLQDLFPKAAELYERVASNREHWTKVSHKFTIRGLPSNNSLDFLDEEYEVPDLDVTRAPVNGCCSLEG
Method: as §1, with “The columns were eluted with 2 ml of 30 mM ammonium formate (pH 6.0).” left out, “The proportion of hydrolyzed nucleotide in no case exceeded 20% of the original substrate concentration.” left out
as §2, §3

PDE1 = test: Inhibition of PDE isoenzymes: PDE1 (Ca^2+/calmodulin-dependent) from bovine brain; settings: Ca^2+ (1 mM), calmodulin (100 nM), cGMP as substrate

Sequence of PDE3 (Q14432 whole entry): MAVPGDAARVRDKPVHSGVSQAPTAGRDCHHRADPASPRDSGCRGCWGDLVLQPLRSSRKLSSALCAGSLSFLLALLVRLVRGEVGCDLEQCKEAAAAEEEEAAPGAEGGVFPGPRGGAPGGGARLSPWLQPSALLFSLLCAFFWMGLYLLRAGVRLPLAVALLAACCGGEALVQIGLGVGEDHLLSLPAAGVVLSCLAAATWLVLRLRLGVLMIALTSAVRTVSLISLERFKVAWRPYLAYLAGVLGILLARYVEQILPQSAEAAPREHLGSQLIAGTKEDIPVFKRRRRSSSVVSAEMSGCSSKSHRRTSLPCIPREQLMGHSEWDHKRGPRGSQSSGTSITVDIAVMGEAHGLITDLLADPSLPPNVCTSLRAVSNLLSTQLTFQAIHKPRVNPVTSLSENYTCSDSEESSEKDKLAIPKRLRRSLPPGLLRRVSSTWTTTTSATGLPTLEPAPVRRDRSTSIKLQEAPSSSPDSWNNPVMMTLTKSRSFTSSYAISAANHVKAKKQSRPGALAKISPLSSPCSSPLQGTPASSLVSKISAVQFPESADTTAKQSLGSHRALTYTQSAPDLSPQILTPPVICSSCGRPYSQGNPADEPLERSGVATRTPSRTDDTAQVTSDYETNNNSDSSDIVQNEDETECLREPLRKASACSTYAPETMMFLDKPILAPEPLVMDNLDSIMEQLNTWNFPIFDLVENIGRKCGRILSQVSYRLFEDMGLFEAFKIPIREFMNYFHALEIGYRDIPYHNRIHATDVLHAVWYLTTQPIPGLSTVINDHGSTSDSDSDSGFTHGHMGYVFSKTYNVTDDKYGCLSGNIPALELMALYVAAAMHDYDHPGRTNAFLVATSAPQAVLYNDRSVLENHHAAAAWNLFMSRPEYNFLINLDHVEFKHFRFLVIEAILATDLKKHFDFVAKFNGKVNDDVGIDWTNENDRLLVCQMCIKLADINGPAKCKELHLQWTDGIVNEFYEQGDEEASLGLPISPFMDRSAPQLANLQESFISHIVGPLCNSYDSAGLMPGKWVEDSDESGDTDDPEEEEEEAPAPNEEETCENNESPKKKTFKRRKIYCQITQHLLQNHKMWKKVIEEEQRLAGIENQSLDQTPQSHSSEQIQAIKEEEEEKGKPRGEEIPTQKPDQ

| SMILES | -log IC50, PDE4 (PDE4) | IC50 (PDE3) [nM] | IC50 (PDE5) [nM] | IC50 (PDE2) [nM] | -log IC50, PDE1 (PDE1) |
| --- | --- | --- | --- | --- | --- |
| CCOc1cc2c(cc1OC)C(c1ccc(C(=O)N(C(C)C)C(C)C)cc1)=N[C@H]1CCN(C)C[C@@H]21.Cl (single isomer, unassigned) [Compound 19, (-)-cis-9-Ethoxy-8-methoxy-6-(4-diisopropylaminocarbonylphenyl)-2-methyl-1,2,3,4,4a,10b-hexahydrobenzo[c][1,6]naphthyridine hydrochloride] | 8.18 | 27.5 | – | – | – |
| CCOc1cc2c(cc1OCC)[C@@H]1CN(C)CC[C@@H]1N=C2c1ccc(C(=O)OC(C)C)cc1.Cl (single isomer, unassigned) [Compound 5, (-)-cis-8,9-Diethoxy-6-(4-isopropoxycarbonylphenyl)-2-methyl-1,2,3,4,4a,10b-hexahydrobenzo[c][1,6]naphthyridine hydrochloride] | 7.75 | 70.8 | – | – | – |
| CCCCN(CCCC)C(=O)c1ccc(C2=N[C@H]3CCN(C)C[C@H]3c3cc(OCC)c(OC)cc32)cc1.Cl (single isomer, unassigned) [Compound 23, (-)-cis-9-Ethoxy-8-methoxy-6-(4-dibutylaminocarbonylphenyl)-2-methyl-1,2,3,4,4a,10b-hexahydrobenzo[c][1,6]naphthyridine hydrochloride] | 8.56 | 229 | – | – | – |
| CCOc1cc2c(cc1OC)C(c1ccc(C(=O)OC)cc1)=N[C@H]1CCN(C)C[C@@H]21.Cl (single isomer, unassigned) [Compound 21, (-)-cis-9-Ethoxy-8-methoxy-6-(4-methoxycarbonylphenyl)-2-methyl-1,2,3,4,4a,10b-hexahydrobenzo[c][1,6]naphthyridine hydrochloride] | 7.67 | 457 | – | – | – |
| CCOc1cc2c(cc1OCC)[C@@H]1CN(C)CC[C@@H]1N=C2c1ccc(C(=O)OC)cc1.Cl (single isomer, unassigned) [Compound 4, (-)-cis-8,9-Diethoxy-6-(4-methoxycarbonylphenyl)-2-methyl-1,2,3,4,4a,10b-hexahydrobenzo[c][1,6]naphthyridine hydrochloride] | 7.54 | 214 | 3550 | 15800 | < 4 -log(mol/l) |
| CCOc1cc2c(cc1OC)C(c1ccc(C(=O)N3CCCCCC3)cc1)=N[C@H]1CCN(C)C[C@@H]21 (single isomer, unassigned) [Compound 24, (-)-cis-9-Ethoxy-8-methoxy-6-[4-(hexahydroazepin-1-yl-carbonyl)phenyl]-2-methyl-1,2,3,4,4a,10b-hexahydrobenzo[c][1,6]naphthyridine] | 8.51 | 22.9 | – | – | – |
| CCOc1cc2c(cc1OCC)[C@@H]1CN(C)CC[C@@H]1N=C2c1ccc(C(=O)N2CCCCCC2)cc1.Cl (single isomer, unassigned) [Compound 18, (-)-cis-8,9-Diethoxy-6-[4-(hexahydroazepin-1-yl-carbonyl)phenyl]-2-methyl-1,2,3,4,4a,10b-hexahydrobenzo[c][1,6]naphthyridine hydrochloride] | 7.87 | 182 | – | – | – |
| CCOc1cc2c(cc1OCC)[C@H]1CN(C)CC[C@H]1N=C2c1ccc(C(=O)N(C(C)C)C2CCCCC2)cc1 (single isomer, unassigned) [Compound 16, (+)-cis-8,9-Diethoxy-6-(4-N-cyclohexyl-N-isopropylaminocarbonylphenyl)-2-methyl-1,2,3,4,4a,10b-hexahydrobenzo[c][1,6]naphthyridine hydrochloride] | 7.96 | 186 | – | – | – |
| COc1cc2c(cc1OC)[C@H]1CN(C)CC[C@H]1N=C2c1ccc(C(=O)OC(C)C)cc1 (single isomer, unassigned) [Compound 3, (-)-cis-8,9-Dimethoxy-6-(4-isoropoxycarbonylphenyl)-2-methyl-1,2,3,4,4a,10b-hexahydrobenzo[c][1,6]naphthyridine hydrochloride] | 6.45 | 72.4 | – | – | – |
| CCCCN(CCCC)C(=O)c1ccc(C2=N[C@H]3CCN(C)C[C@H]3c3cc(OCC)c(OCC)cc32)cc1.Cl (single isomer, unassigned) [Compound 17, (+)-cis-8,9-Diethoxy-6-(4-dibutylaminocarbonylphenyl)-2-methyl-1,2,3,4,4a,10b-hexahydrobenzo[c][1,6]naphthyridine hydrochloride] | 7.94 | 417 | – | – | – |
| CCOc1cc2c(cc1OCC)[C@H]1CN(C)CC[C@H]1N=C2c1ccc(C(=O)N(C(C)C)C(C)C)cc1 (single isomer, unassigned) [Compound 11, (-)-cis-8,9-Diethoxy-6-(4-diisopropylaminocarbonylphenyl-2-methyl-1,2,3,4,4a,10b-hexahydrobenzo[c][1,6]naphthyridine hydrochloride] | 7.85 | 58.9 | – | – | – |
